Assay results published in patent publication US20230126893A1, “[(1,4,5-TRISUBSTITUTED-1H-PYRAZOL-3-YL)SULFANYL]ACETIC ACID DERIVATIVES, SALTS THEREOF, AND USE THEREOF AS ACTIVE HERBICIDAL INGREDIENTS” (BAYER AKTIENGESELLSCHAFT, priority 2020, published 2023).

What was measured:
Type in all cases: in vivo
[1] = tested on: Abutylon threophrasti; assay: Post-emergence herbicidal effect against ABUTH; conditions: 1280 g/ha, visual assessment about 3 weeks after treatment, 100% = plants have died, 0% = like control plants
In short: (§1)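 Percent herbicidal effect, judged visually against untreated plants about 3 weeks after treatment, where 100% means dead plants. Treatment was a foliar spray of WP or EC formulations (600 to 800 l/ha water, 0.2% wetting agent) on one-leaf-stage plants raised in sandy loam.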

[2] = tested on: Lolium rigidum; assay: Pre-emergence herbicidal effect against LOLRI; conditions: 1280 g/ha, visual score after 3 weeks, 100% = plants have died, 0% = like control plants
In short: (§2)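 Percent herbicidal activity (100% = dead, 0% = as control) was rated by eye 3 weeks post-application in greenhouse pots of sandy loam, with treatment sprayed onto the covering soil before emergence.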

[3] = tested on: Digitaria sanguinalis; assay: Pre-emergence herbicidal effect against DIGSA; conditions: 1280 g/ha, visual score after 3 weeks, 100% = plants have died, 0% = like control plants
In short: as §2

[4] = tested on: Poa annua; assay: Post-emergence herbicidal effect against POAAN; conditions: 1280 g/ha, visual assessment about 3 weeks after treatment, 100% = plants have died, 0% = like control plants
In short: as §1

[5] = tested on: Alopecurus myosuroides; assay: Post-emergence herbicidal effect against ALOMY; conditions: 1280 g/ha, visual score after about 3 weeks, 100% = plants have died, 0% = like control plants
In short: as §1

[6] = tested on: Poa annua; assay: Pre-emergence herbicidal effect against POAAN; conditions: 1280 g/ha, visual score after 3 weeks, 100% = plants have died, 0% = like control plants
In short: as §2

[7] = tested on: Stellaria media; assay: Pre-emergence herbicidal effect against STEME; conditions: 1280 g/ha, visual score after 3 weeks, 100% = plants have died, 0% = like control plants
In short: as §2

[8] = tested on: Veronica persica; assay: Post-emergence herbicidal effect against VERPE; conditions: 1280 g/ha, visual assessment about 3 weeks after treatment, 100% = plants have died, 0% = like control plants
In short: as §1

[9] = tested on: Setaria viridis; assay: Pre-emergence herbicidal effect against SETVI; conditions: 1280 g/ha, visual score after 3 weeks, 100% = plants have died, 0% = like control plants
In short: as §2

[10] = tested on: Veronica persica; assay: Pre-emergence herbicidal effect against VERPE; conditions: 1280 g/ha, visual score after 3 weeks, 100% = plants have died, 0% = like control plants
In short: as §2

[11] = tested on: Echinochloa crus-galli; assay: Post-emergence herbicidal effect against ECHCG; conditions: 1280 g/ha, visual score after about 3 weeks, 100% = plants have died, 0% = like control plants
In short: as §1

[12] = tested on: Bassia scoparia; assay: Post-emergence herbicidal effect against KCHSC; conditions: 1280 g/ha, visual assessment about 3 weeks after treatment, 100% = plants have died, 0% = like control plants
In short: as §1

[13] = tested on: Echinochloa crus-galli; assay: Pre-emergence herbicidal effect against ECHCG; conditions: 1280 g/ha, visual score after 3 weeks, 100% = plants have died, 0% = like control plants
In short: as §2

[14] = tested on: Tripleurospermum inodorum; assay: Pre-emergence herbicidal effect against MATIN; conditions: 1280 g/ha, visual score after 3 weeks, 100% = plants have died, 0% = like control plants
In short: as §2

[15] = tested on: Bassia scoparia; assay: Pre-emergence herbicidal effect against KCHSC; conditions: 1280 g/ha, visual score after 3 weeks, 100% = plants have died, 0% = like control plants
Text: (§3) 1. Pre-emergence herbicidal effect and crop plant compatibility Seeds of monocotyledonous and dicotyledonous weed plants and crop plants are laid out in sandy loam soil in wood-fibre pots and covered with soil. The compounds of the invention, formulated in the form of wettable powders (WP) or as emulsion concentrates (EC), are then applied to the surface of the covering soil as aqueous suspension or emulsion at a water application rate equating to 600 to 800 L/ha with addition of 0.2% wetting agent. After the treatment, the pots are placed in a greenhouse and kept under good growth conditions for the trial plants. The damage to the test plants is scored visually after a test period of 3 weeks by comparison with untreated controls (herbicidal activity in percent (%): 100% activity=the plants have died, 0% activity=like control plants). [table]

[16] = tested on: Alopecurus myosuroides; assay: Pre-emergence herbicidal effect against ALOMY; conditions: 1280 g/ha, visual score after 3 weeks, 100% = plants have died, 0% = like control plants
In short: as §2

[17] = tested on: Amaranthus retroflexus; assay: Pre-emergence herbicidal effect against AMARE; conditions: 1280 g/ha, visual score after 3 weeks, 100% = plants have died, 0% = like control plants
Text: as §3

[18] = tested on: Stellaria media; assay: Post-emergence herbicidal effect against STEME; conditions: 1280 g/ha, visual assessment about 3 weeks after treatment, 100% = plants have died, 0% = like control plants
In short: as §1

[19] = tested on: Amaranthus retroflexus; assay: Post-emergence herbicidal effect against AMARE; conditions: 1280 g/ha, visual assessment about 3 weeks after treatment, 100% = plants have died, 0% = like control plants
Experimental: (§4) [table] 2. Post-emergence herbicidal effect and crop plant compatibility Seeds of monocotyledonous and dicotyledonous weed and crop plants are laid out in sandy loam soil in wood-fibre pots, covered with soil and cultivated in a greenhouse under good growth conditions. 2 to 3 weeks after sowing, the test plants are treated at the one-leaf stage. The compounds of the invention, formulated in the form of wettable powders (WP) or as emulsion concentrates (EC), are then sprayed onto the green parts of the plants as aqueous suspension or emulsion at a water application rate equating to 600 to 800 l/ha with addition of 0.2% wetting agent. After the test plants have been left to stand in the greenhouse under optimal growth conditions for about 3 weeks, the action of the preparations is assessed visually in comparison to untreated controls (herbicidal action in percent (%): 100% activity=the plants have died, 0% activity=like control plants).

[20] = tested on: Setaria viridis; assay: Post-emergence herbicidal effect against SETVI; conditions: 1280 g/ha, visual assessment about 3 weeks after treatment, 100% = plants have died, 0% = like control plants
Experimental: as §4

[21] = tested on: Tripleurospermum inodorum; assay: Post-emergence herbicidal effect against MATIN; conditions: 1280 g/ha, visual assessment about 3 weeks after treatment, 100% = plants have died, 0% = like control plants
In short: as §1

[22] = tested on: Digitaria sanguinalis; assay: Post-emergence herbicidal effect against DIGSA; conditions: 1280 g/ha, visual score after about 3 weeks, 100% = plants have died, 0% = like control plants
Experimental: as §4

SMILES: CCOC(=O)C(C)Sc1nn(-c2ccccc2F)c(-c2ccc(F)c(F)c2)c1Br (centres unmarked) [Example I-015]
- Post-emergence action against ABUTH [1]: 90%
- Pre-emergence action against LOLRI [2]: 100%
- Pre-emergence action against DIGSA [3]: 100%
- Post-emergence action against POAAN [4]: 100%
- Post-emergence action against ALOMY [5]: 100%
- Pre-emergence action against POAAN [6]: 100%
- Pre-emergence action against STEME [7]: 100%
- Post-emergence action against VERPE [8]: 100%
- Pre-emergence action against SETVI [9]: 100%
- Pre-emergence action against VERPE [10]: 100%
- Post-emergence action against ECHCG [11]: 100%
- Post-emergence action against KCHSC [12]: 90%
- Pre-emergence action against ECHCG [13]: 100%
- Pre-emergence action against MATIN [14]: 100%
- Pre-emergence action against KCHSC [15]: 100%
- Pre-emergence action against ALOMY [16]: 100%

SMILES: CCOC(=O)CSc1nn(-c2ccccc2F)c(-c2ccc(F)nc2)c1Br [II-001, Ethyl {[4-bromo-1-(2-fluorophenyl)-5-(6-fluoropyridin-3-yl)-1H-pyrazol-3-yl]sulfanyl}acetate]
- Post-emergence action against ABUTH [1]: 90%
- Pre-emergence action against LOLRI [2]: 100%
- Pre-emergence action against DIGSA [3]: 100%
- Pre-emergence action against AMARE [17]: 100%
- Post-emergence action against POAAN [4]: 100%
- Post-emergence action against ALOMY [5]: 100%
- Pre-emergence action against POAAN [6]: 100%
- Post-emergence action against STEME [18]: 90%
- Pre-emergence action against STEME [7]: 90%
- Post-emergence action against VERPE [8]: 90%
- Pre-emergence action against SETVI [9]: 100%
- Post-emergence action against AMARE [19]: 100%
- Post-emergence action against SETVI [20]: 90%
- Pre-emergence action against VERPE [10]: 100%
- Post-emergence action against ECHCG [11]: 100%
- Pre-emergence action against ECHCG [13]: 100%
- Post-emergence action against MATIN [21]: 100%
- Pre-emergence action against MATIN [14]: 100%
- Post-emergence action against DIGSA [22]: 100%
- Pre-emergence action against ALOMY [16]: 100%

SMILES: O=C(O)CSc1nn(-c2ccccc2F)c(-c2cncc(Cl)c2)c1Br [II-008]
- Post-emergence action against ABUTH [1]: 90%
- Pre-emergence action against LOLRI [2]: 100%
- Pre-emergence action against DIGSA [3]: 100%
- Pre-emergence action against AMARE [17]: 100%
- Post-emergence action against POAAN [4]: 100%
- Post-emergence action against ALOMY [5]: 100%
- Pre-emergence action against POAAN [6]: 100%
- Post-emergence action against STEME [18]: 100%
- Pre-emergence action against STEME [7]: 100%
- Post-emergence action against VERPE [8]: 100%
- Pre-emergence action against SETVI [9]: 100%
- Post-emergence action against AMARE [19]: 90%
- Post-emergence action against SETVI [20]: 90%
- Pre-emergence action against VERPE [10]: 100%
- Post-emergence action against ECHCG [11]: 100%
- Pre-emergence action against ECHCG [13]: 100%
- Post-emergence action against MATIN [21]: 100%
- Pre-emergence action against MATIN [14]: 100%
- Post-emergence action against DIGSA [22]: 100%
- Pre-emergence action against ALOMY [16]: 100%
